Values joined by “and” are separate entries in the source; they are usually repeats but may differ in a detail not shown here. Equal entries are not always repeated.
Tested on: 292921-168-R-J2-PDC complex spheroid growth
Assay: Anticancer human tumor 292921-168-R-J2-PDC patient-derived pancreatic carcinoma cell line growth inhibition [AhR]
Details: for viability, T/C: stronger effect = lower value; active = viability on the fitted dose curve at most 10% of control; inactive = the rest
Outline: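 Complex tumor spheroids co-cultured with HUVEC and human MSC stroma; AhR antagonists tested in combination with standard-of-care and investigational agents. Top concentration at or near clinical Cmax (else 10 microM), half-log dilutions; growth expressed as percent test/control.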

[1] = curve of first compound, second compound 0.1 µM
[2] = curve of first compound, second compound 0.316 µM
[3] = curve of first compound, second compound 1 µM
[4] = curve of first compound, second compound 3.16 µM
[5] = curve of first compound, second compound 10 µM
[6] = second compound 0.1 µM, first compound 0.0316 µM
[7] = second compound 0.1 µM, first compound 0.1 µM
[8] = second compound 0.316 µM, first compound 0.0316 µM
[9] = second compound 0.316 µM, first compound 0.1 µM
[10] = second compound 1 µM, first compound 0.0316 µM
[11] = second compound 1 µM, first compound 0.1 µM
[12] = second compound 3.16 µM, first compound 0.0316 µM
[13] = second compound 3.16 µM, first compound 0.1 µM
[14] = second compound 10 µM, first compound 0.0316 µM
[15] = second compound 10 µM, first compound 0.1 µM
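Also: spheroids exposed to compounds for seven days after three days of growth.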

NS(=O)(=O)OCC1CC(n2ccc3c(NC4CCc5ccccc54)ncnc32)CC1O (configuration not stated)
inactive: viability, T/C (compound 0.0316 µM) 126% and 115% and 113% | viability, T/C (compound 0.1 µM) 106% and 81.2% and 99.9% | viability, T/C (compound 0.316 µM) 27.1% and 16.2% and 25.9%
226 nM and 174 nM and 217 nM: IC50 (curve of compound)
active: viability, T/C (compound 1 µM) 6.6% and 3.53% and 5.82% | viability, T/C (compound 3.16 µM) 5.73% and 3.02% and 4.02% | viability, T/C (compound 10 µM) 5.17% and 3.01% and 3.79%

Cn1ncnc1C1c2n[nH]c(=O)c3cc(F)cc(c23)NC1c1ccc(F)cc1 (configuration not stated) + CC(CO)NC(=O)c1cc(-c2ccc(Cl)cc2)nn(-c2cnn(C)c2)c1=O
inactive: viability, T/C (second compound 0.1 µM, first compound 0.000316 µM) 103% | viability, T/C (second compound 0.1 µM, first compound 0.001 µM) 109% | viability, T/C (second compound 0.1 µM, first compound 0.00316 µM) 100% | viability, T/C (second compound 0.1 µM, first compound 0.01 µM) 99.8% | viability, T/C [6] 94.3% | viability, T/C [7] 87.6% | viability, T/C (second compound 0.316 µM, first compound 0.000316 µM) 109% | viability, T/C (second compound 0.316 µM, first compound 0.001 µM) 97.5% | viability, T/C (second compound 0.316 µM, first compound 0.00316 µM) 104% | viability, T/C (second compound 0.316 µM, first compound 0.01 µM) 96% | viability, T/C [8] 96.5% | viability, T/C [9] 79.9% | viability, T/C (second compound 1 µM, first compound 0.000316 µM) 108% | viability, T/C (second compound 1 µM, first compound 0.001 µM) 106% | viability, T/C (second compound 1 µM, first compound 0.00316 µM) 99.6% | viability, T/C (second compound 1 µM, first compound 0.01 µM) 89.9% | viability, T/C [10] 86.3% | viability, T/C [11] 94.3% | viability, T/C (second compound 3.16 µM, first compound 0.000316 µM) 92.2% | viability, T/C (second compound 3.16 µM, first compound 0.001 µM) 99.2% | viability, T/C (second compound 3.16 µM, first compound 0.00316 µM) 92.6% | viability, T/C (second compound 3.16 µM, first compound 0.01 µM) 92.9% | viability, T/C [12] 77.1% | viability, T/C [13] 77.4% | viability, T/C (second compound 10 µM, first compound 0.000316 µM) 68.5% | viability, T/C (second compound 10 µM, first compound 0.001 µM) 73.3% | viability, T/C (second compound 10 µM, first compound 0.00316 µM) 75.8% | viability, T/C (second compound 10 µM, first compound 0.01 µM) 73% | viability, T/C [14] 67% | viability, T/C [15] 64.6%
> 100 nM: IC50 [1] | IC50 [2] | IC50 [3] | IC50 [4] | IC50 [5]

O=C(C=Cc1cccc(S(=O)(=O)Nc2ccccc2)c1)NO + Cc1cncc(-c2nc(NCCc3c[nH]c4ccccc34)c3ncn(C(C)C)c3n2)c1
inactive: viability, T/C [6] 76% | viability, T/C [7] 59.6% | viability, T/C (second compound 0.1 µM, first compound 0.316 µM) 46.1% | viability, T/C (second compound 0.1 µM, first compound 1 µM) 41% | viability, T/C (second compound 0.1 µM, first compound 3.16 µM) 36% | viability, T/C (second compound 0.1 µM, first compound 10 µM) 3.84% | viability, T/C [8] 69.9% | viability, T/C [9] 61.4% | viability, T/C (second compound 0.316 µM, first compound 0.316 µM) 50.9% | viability, T/C (second compound 0.316 µM, first compound 1 µM) 39.9% | viability, T/C (second compound 0.316 µM, first compound 3.16 µM) 33.4% | viability, T/C [10] 55.3% | viability, T/C [11] 59.7% | viability, T/C (second compound 1 µM, first compound 0.316 µM) 49.6% | viability, T/C (second compound 1 µM, first compound 1 µM) 35.4% | viability, T/C (second compound 1 µM, first compound 3.16 µM) 30.5% | viability, T/C [12] 46.3% | viability, T/C [13] 46.6% | viability, T/C (second compound 3.16 µM, first compound 0.316 µM) 46% | viability, T/C (second compound 3.16 µM, first compound 1 µM) 31.9% | viability, T/C (second compound 3.16 µM, first compound 3.16 µM) 31.7% | viability, T/C [14] 32.9% | viability, T/C [15] 34.2% | viability, T/C (second compound 10 µM, first compound 0.316 µM) 30.1% | viability, T/C (second compound 10 µM, first compound 1 µM) 29% | viability, T/C (second compound 10 µM, first compound 3.16 µM) 26.6% | viability, T/C (second compound 10 µM, first compound 10 µM) 6.63%
280 nM: IC50 [3]
374 nM: IC50 [1]
active: viability, T/C (second compound 0.316 µM, first compound 10 µM) 3.8% | viability, T/C (second compound 1 µM, first compound 10 µM) 4.08% | viability, T/C (second compound 3.16 µM, first compound 10 µM) 4.11%
< 31.6 nM: IC50 [4] | IC50 [5]
460 nM: IC50 [2]

Reference: PubChem BioAssay AID1918994 (Molecular Pharmacology Branch, DTP, NCI, 2023)
